Source: patent publication US9302999B2, “Substituted triazoles as herbicides” (E. I. DU PONT DE NEMOURS AND COMPANY, priority 2012, dated 2016)

Key:
Type in all cases: in vivo
[1] = tested on: pigweed (Amaranthus retroflexus); assay: Test C pre-/postemergence: pigweed
How it was run: (§1)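 Preemergence on seeds in loam/sand, postemergence on 2–18 cm (1–4-leaf) plants in peat-based medium; compounds in non-phytotoxic solvent with surfactant. After 13–15 days in greenhouse, visual rating versus controls, 0 (no effect) to 100 (complete control).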

[2] = tested on: velvetleaf (Abutilon theophrasti); assay: Test A pre-/postemergence: velvetleaf
How it was run: (§2)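 Visual 0–100 injury ratings (0 no effect, 100 complete control) taken about ten days after treatment, relative to untreated controls. Preemergence treatment was a directed soil spray; postemergence plants were 2–10 cm tall at one- to two-leaf stage. Soil: loam/sand blend.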

[3] = tested on: wild oat (Avena fatua); assay: Test C pre-/postemergence: wild oat
How it was run: as §1

[4] = tested on: corn (Zea mays); assay: Test A pre-/postemergence: corn; conditions: for Corn plant response rating: Postemergence; for Plant response rating, Corn: Preemergence
How it was run: as §2

[5] = tested on: barnyardgrass (Echinochloa crus-galli); assay: Test A pre-/postemergence: barnyardgrass; conditions: for Barnyardgrass plant response rating: Postemergence; for Plant response rating, Barnyardgrass: Preemergence
How it was run: as §2

[6] = tested on: blackgrass (Alopecurus myosuroides); assay: Test C pre-/postemergence: blackgrass
How it was run: as §1

[7] = tested on: rice (Oryza sativa); assay: Test B flooded paddy: rice; conditions: Flood; 250 g ai/ha; applied to paddy water at 2-leaf stage; visually evaluated after 13 to 15 days
How it was run: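 Plants were grown to the 2-leaf stage and pots flooded to 3 cm above soil. Compounds were applied directly into the paddy water, with depth kept for the test. After 13–15 days in greenhouse, response was rated visually against controls on a 0 (no effect) to 100 (complete control) scale.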

[8] = tested on: winter wheat (Triticum aestivum); assay: Test C pre-/postemergence: winter wheat
How it was run: as §1

[9] = tested on: chickweed (common chickweed, Stellaria media); assay: Test C postemergence: chickweed
How it was run: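 Crop and weed plants were grown in peat-vermiculite medium and treated postemergence at the 1- to 4-leaf stage (2-18 cm tall). After 13-15 days in a greenhouse, each species was rated visually against untreated controls on a 0-100 scale (0 no effect, 100 complete control).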

[10] = tested on: johnsongrass (Sorghum halepense); assay: Test C pre-/postemergence: johnsongrass
How it was run: as §1

[11] = Postemergence, 31 g ai/ha, scale 0 to 100 (0 no effect, 100 complete control)
[12] = Postemergence, 62 g ai/ha, scale 0 to 100 (0 no effect, 100 complete control)
[13] = Postemergence, 125 g ai/ha, scale 0 to 100, 0 no effect, 100 complete control
[14] = Postemergence, 250 g ai/ha, scale 0 to 100
[15] = Postemergence, 125 g ai/ha, 0 to 100 scale, 0 is no effect, 100 is complete control
[16] = Postemergence, 500 g ai/ha, visual rating on 0 to 100 scale (0 no effect, 100 complete control), approximately ten days
[17] = 125 g ai/ha, 0 to 100 scale, 0 is no effect, 100 is complete control
[18] = 500 g ai/ha, visual rating on 0 to 100 scale (0 no effect, 100 complete control), approximately ten days
[19] = 125 g ai/ha, 0 to 100 scale (0 no effect, 100 complete control)
[20] = 500 g ai/ha, 0 to 100 scale, 0 is no effect, 100 is complete control
[21] = 62 g ai/ha, scale 0 to 100 (0 no effect, 100 complete control)
[22] = 125 g ai/ha, scale 0 to 100, 0 no effect, 100 complete control
[23] = Preemergence, 31 g ai/ha, scale of 0 to 100, 0 is no effect, 100 is complete control
[24] = Preemergence, 62 g ai/ha, scale of 0 to 100, 0 is no effect, 100 is complete control
[25] = Preemergence, 125 g ai/ha, scale 0 to 100, 0 no effect, 100 complete control
[26] = Preemergence, 250 g ai/ha, scale 0 to 100, 0 no effect, 100 complete control
[27] = 125 g ai/ha, 0 to 100 scale where 0 is no effect and 100 is complete control
[28] = 500 g ai/ha, 0 to 100 scale (0 no effect, 100 complete control)

## FC(F)(F)c1ccc(-n2nc(Cl)c(Cc3ccnc(C(F)(F)F)c3)n2)cc1 [Compound 28]
[1]; [11]
  Plant response rating, Pigweed: 55
[1]; [12]
  Plant response rating, Pigweed: 55
[1]; [13]
  Plant response rating, Pigweed: 55
[1]; [14]
  Plant response rating, Pigweed: 98
[2]; [15]
  Velvetleaf plant response rating: 80
[2]; [16]
  Velvetleaf plant response rating: 100
[2]; Preemergence, 125 g ai/ha, 0 to 100 scale (0 no effect, 100 complete control)
  Plant response rating, Velvetleaf: 20
[2]; Preemergence, 500 g ai/ha, 0 to 100 scale, 0 is no effect, 100 is complete control
  Plant response rating, Velvetleaf: 80
[3]; [11]
  Plant response rating, Oat, Wild: 10
[3]; [12]
  Plant response rating, Oat, Wild: 15
[3]; [13]
  Plant response rating, Oat, Wild: 40
[3]; [14]
  Plant response rating, Oat, Wild: 70
[4]; [17]
  Corn plant response rating: 30
[4]; [18]
  Corn plant response rating: 50
[4]; [19]
  Plant response rating, Corn: 20
[4]; [20]
  Plant response rating, Corn: 20
[5]; [17]
  Barnyardgrass plant response rating: 70
[5]; [18]
  Barnyardgrass plant response rating: 90
[5]; [19]
  Plant response rating, Barnyardgrass: 50
[5]; [20]
  Plant response rating, Barnyardgrass: 90
[6]; [11]
  Plant response rating, Blackgrass: 10
[6]; [12]
  Plant response rating, Blackgrass: 10
[6]; [13]
  Plant response rating, Blackgrass: 55
[6]; [14]
  Plant response rating, Blackgrass: 60
[7]
  Plant response rating, Rice (0 to 100 scale, 0 is no effect, 100 is complete control): 80
[8]; [11]
  Plant response rating, Wheat: 5
[8]; [12]
  Plant response rating, Wheat: 10
[8]; [13]
  Plant response rating, Wheat: 10
[8]; [14]
  Plant response rating, Wheat: 20
[9]; 31 g ai/ha, scale 0 to 100 (0 no effect, 100 complete control)
  Plant response rating, Chickweed: 30
[9]; [21]
  Plant response rating, Chickweed: 55
[9]; [22]
  Plant response rating, Chickweed: 95
[9]; 250 g ai/ha, scale 0 to 100
  Plant response rating, Chickweed: 100
[10]; [11]
  Plant response rating, Johnsongrass: 5
[10]; [12]
  Plant response rating, Johnsongrass: 5
[10]; [13]
  Plant response rating, Johnsongrass: 5
[10]; [14]
  Plant response rating, Johnsongrass: 10

## COc1nn(-c2ccc(C(F)(F)F)cc2)nc1Cc1ccnc(C(F)F)c1 [Compound 138]
[1]; [11]
  Plant response rating, Pigweed: 98
[1]; [12]
  Plant response rating, Pigweed: 98
[1]; [13]
  Plant response rating, Pigweed: 98
[1]; [14]
  Plant response rating, Pigweed: 100
[1]; [23]
  Plant response rating, Pigweed: 98
[1]; [24]
  Plant response rating, Pigweed: 100
[1]; [25]
  Plant response rating, Pigweed: 100
[1]; [26]
  Plant response rating, Pigweed: 100
[2]; [15]
  Plant response rating, Velvetleaf: 100
[2]; [16]
  Velvetleaf plant response rating: 100
[2]; Preemergence, 125 g ai/ha, 0 to 100 scale where 0 is no effect and 100 is complete control
  Plant response rating, Velvetleaf: 70
[2]; Preemergence, 500 g ai/ha, 0 to 100 scale (0 no effect, 100 complete control)
  Plant response rating, Velvetleaf: 100
[3]; [11]
  Plant response rating, Oat, Wild: 55
[3]; [12]
  Plant response rating, Oat, Wild: 60
[3]; [13]
  Plant response rating, Oat, Wild: 80
[3]; [14]
  Plant response rating, Oat, Wild: 98
[3]; [23]
  Plant response rating, Oat, Wild: 80
[3]; [24]
  Plant response rating, Oat, Wild: 85
[3]; [25]
  Plant response rating, Oat, Wild: 95
[3]; [26]
  Plant response rating, Oat, Wild: 95
[4]; [17]
  Corn plant response rating: 50
[4]; [18]
  Corn plant response rating: 70
[4]; [27]
  Plant response rating, Corn: 30
[4]; [28]
  Plant response rating, Corn: 60
[5]; [17]
  Barnyardgrass plant response rating: 90
[5]; [18]
  Barnyardgrass plant response rating: 90
[5]; [27]
  Plant response rating, Barnyardgrass: 90
[5]; [28]
  Plant response rating, Barnyardgrass: 100
[6]; [11]
  Plant response rating, Blackgrass: 20
[6]; [12]
  Plant response rating, Blackgrass: 40
[6]; [13]
  Plant response rating, Blackgrass: 40
[6]; [14]
  Plant response rating, Blackgrass: 45
[6]; [23]
  Plant response rating, Blackgrass: 90
[6]; [24]
  Plant response rating, Blackgrass: 95
[6]; [25]
  Plant response rating, Blackgrass: 95
[6]; [26]
  Plant response rating, Blackgrass: 95
[7]
  Plant response rating, Rice (0 to 100 scale, 0 is no effect, 100 is complete control): 50
[8]; [11]
  Plant response rating, Wheat: 10
[8]; [12]
  Plant response rating, Wheat: 10
[8]; [13]
  Plant response rating, Wheat: 35
[8]; [14]
  Plant response rating, Wheat: 35
[8]; [24]
  Plant response rating, Wheat: 5
[8]; [25]
  Plant response rating, Wheat: 10
[8]; [26]
  Plant response rating, Wheat: 50
[9]; [21]
  Plant response rating, Chickweed: 80
[9]; [22]
  Plant response rating, Chickweed: 95
[9]; 250 g ai/ha, scale 0 to 100
  Plant response rating, Chickweed: 98
[10]; [11]
  Plant response rating, Johnsongrass: 45
[10]; [12]
  Plant response rating, Johnsongrass: 45
[10]; [13]
  Plant response rating, Johnsongrass: 45
[10]; [14]
  Plant response rating, Johnsongrass: 95
[10]; [23]
  Plant response rating, Johnsongrass: 45
[10]; [24]
  Plant response rating, Johnsongrass: 85
[10]; [25]
  Plant response rating, Johnsongrass: 98
[10]; [26]
  Plant response rating, Johnsongrass: 100
